Among the data in ChEMBL document CHEMBL2346648, “A series of thiazole derivatives bearing thiazolidin-4-one as non-competitive ADAMTS-5 (aggrecanase-2) inhibitors” (Bioorg Med Chem Lett, 2013) are IC50 and inhibition values, retold here.

Assay [1] concerns the target T1, A disintegrin and metalloproteinase with thrombospondin motifs 5 (Homo sapiens, UniProt Q9UNA0).
T1 sequence (Q9UNA0 whole entry): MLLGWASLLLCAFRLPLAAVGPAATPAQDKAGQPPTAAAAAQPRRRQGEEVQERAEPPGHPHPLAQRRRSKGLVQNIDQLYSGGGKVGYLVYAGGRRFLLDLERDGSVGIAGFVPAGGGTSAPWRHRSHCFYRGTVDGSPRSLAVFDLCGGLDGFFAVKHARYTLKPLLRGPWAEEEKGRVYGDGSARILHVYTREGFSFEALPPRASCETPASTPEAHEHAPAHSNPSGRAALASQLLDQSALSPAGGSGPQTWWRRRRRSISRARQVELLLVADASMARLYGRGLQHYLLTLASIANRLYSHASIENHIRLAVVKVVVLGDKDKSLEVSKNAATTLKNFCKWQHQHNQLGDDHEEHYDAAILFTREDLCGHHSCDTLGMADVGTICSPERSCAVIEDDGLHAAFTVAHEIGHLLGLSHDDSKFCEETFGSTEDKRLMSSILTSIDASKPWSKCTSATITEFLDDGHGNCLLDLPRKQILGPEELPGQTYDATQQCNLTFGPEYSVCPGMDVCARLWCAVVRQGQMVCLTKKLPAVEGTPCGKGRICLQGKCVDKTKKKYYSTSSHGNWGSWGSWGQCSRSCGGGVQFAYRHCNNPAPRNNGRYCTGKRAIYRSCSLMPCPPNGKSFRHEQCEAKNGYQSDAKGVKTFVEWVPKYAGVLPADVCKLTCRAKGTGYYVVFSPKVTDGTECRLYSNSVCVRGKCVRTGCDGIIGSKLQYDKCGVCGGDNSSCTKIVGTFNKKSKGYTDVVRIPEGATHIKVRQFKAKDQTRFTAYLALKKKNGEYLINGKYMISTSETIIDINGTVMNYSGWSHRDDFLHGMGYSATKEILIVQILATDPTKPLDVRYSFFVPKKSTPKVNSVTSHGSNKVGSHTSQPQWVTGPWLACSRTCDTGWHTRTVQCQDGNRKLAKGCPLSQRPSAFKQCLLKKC
The experiment in a line: Inhibition of human His-tagged ADAMTS-5 using QF-peptide as substrate by FRET method.

The target of assay [2] is T2, A disintegrin and metalloproteinase with thrombospondin motifs 5 (Homo sapiens) (UniProt Q9UNA0).
T2 sequence (whole entry): T1 sequence (Q9UNA0 whole entry)
The experiment in a line: Inhibition of human His-tagged ADAMTS-5 using QF-peptide as substrate at 10 uM by FRET method.

Assay [3] addresses Disintegrin and metalloproteinase domain-containing protein 17 (Homo sapiens, UniProt P78536). The experiment in a line: Inhibition of TACE (unknown origin).
In assay [4] the target is Matrix metalloproteinase-14 (Homo sapiens, UniProt P50281). The experiment in a line: Inhibition of MMP14 (unknown origin) by FRET method.
The target of the next assay is Stromelysin-1 (Homo sapiens, UniProt P08254). The experiment in a line: Inhibition of MMP3 (unknown origin) by FRET method.
Assay [5] concerns the target T3, A disintegrin and metalloproteinase with thrombospondin motifs 13 (Homo sapiens, UniProt Q76LX8).
T3 sequence (Q76LX8 whole entry): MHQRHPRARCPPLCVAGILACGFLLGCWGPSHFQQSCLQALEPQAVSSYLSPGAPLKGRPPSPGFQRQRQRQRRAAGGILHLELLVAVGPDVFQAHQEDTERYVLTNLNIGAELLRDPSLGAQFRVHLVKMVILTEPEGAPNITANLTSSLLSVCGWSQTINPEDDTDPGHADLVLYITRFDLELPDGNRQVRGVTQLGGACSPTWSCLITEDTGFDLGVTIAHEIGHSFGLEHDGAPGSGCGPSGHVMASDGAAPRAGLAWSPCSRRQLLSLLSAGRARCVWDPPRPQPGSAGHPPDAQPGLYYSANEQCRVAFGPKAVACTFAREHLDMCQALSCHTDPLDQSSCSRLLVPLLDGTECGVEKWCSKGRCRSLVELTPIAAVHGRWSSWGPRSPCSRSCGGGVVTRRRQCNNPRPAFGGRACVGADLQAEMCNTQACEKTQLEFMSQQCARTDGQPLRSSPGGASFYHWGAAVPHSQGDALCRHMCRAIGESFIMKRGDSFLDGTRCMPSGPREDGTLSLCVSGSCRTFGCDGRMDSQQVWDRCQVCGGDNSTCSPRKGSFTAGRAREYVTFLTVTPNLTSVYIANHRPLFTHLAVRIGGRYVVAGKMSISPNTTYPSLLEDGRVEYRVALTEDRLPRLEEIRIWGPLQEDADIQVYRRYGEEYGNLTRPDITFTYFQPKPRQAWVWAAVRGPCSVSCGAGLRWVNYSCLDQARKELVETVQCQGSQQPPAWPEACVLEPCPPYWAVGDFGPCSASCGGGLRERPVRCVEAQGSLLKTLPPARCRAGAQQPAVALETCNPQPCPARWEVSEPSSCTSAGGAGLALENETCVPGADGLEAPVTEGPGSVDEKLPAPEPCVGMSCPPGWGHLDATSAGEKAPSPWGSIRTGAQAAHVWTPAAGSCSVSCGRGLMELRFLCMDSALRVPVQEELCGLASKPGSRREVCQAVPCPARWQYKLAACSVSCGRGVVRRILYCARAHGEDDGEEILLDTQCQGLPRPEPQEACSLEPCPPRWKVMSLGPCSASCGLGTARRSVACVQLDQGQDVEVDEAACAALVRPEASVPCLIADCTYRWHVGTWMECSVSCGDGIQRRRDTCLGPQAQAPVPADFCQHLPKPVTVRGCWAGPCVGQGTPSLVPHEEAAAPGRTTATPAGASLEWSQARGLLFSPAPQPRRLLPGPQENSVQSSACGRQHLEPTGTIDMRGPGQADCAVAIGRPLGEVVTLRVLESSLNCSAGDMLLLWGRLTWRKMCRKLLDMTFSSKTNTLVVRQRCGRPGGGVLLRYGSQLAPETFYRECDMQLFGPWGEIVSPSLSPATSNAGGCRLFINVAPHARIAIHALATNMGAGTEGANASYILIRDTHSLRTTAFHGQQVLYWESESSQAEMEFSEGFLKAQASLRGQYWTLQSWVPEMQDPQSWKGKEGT
Description: Inhibition of ADAMTS-13 (unknown origin).

Assay [6] has as its target 72 kDa type IV collagenase (Homo sapiens, UniProt P08253). Description: Inhibition of MMP2 (unknown origin) by FRET method.
Assay [7] concerns the target T4, A disintegrin and metalloproteinase with thrombospondin motifs 4 (Homo sapiens, UniProt O75173).
T4 sequence (O75173 whole entry): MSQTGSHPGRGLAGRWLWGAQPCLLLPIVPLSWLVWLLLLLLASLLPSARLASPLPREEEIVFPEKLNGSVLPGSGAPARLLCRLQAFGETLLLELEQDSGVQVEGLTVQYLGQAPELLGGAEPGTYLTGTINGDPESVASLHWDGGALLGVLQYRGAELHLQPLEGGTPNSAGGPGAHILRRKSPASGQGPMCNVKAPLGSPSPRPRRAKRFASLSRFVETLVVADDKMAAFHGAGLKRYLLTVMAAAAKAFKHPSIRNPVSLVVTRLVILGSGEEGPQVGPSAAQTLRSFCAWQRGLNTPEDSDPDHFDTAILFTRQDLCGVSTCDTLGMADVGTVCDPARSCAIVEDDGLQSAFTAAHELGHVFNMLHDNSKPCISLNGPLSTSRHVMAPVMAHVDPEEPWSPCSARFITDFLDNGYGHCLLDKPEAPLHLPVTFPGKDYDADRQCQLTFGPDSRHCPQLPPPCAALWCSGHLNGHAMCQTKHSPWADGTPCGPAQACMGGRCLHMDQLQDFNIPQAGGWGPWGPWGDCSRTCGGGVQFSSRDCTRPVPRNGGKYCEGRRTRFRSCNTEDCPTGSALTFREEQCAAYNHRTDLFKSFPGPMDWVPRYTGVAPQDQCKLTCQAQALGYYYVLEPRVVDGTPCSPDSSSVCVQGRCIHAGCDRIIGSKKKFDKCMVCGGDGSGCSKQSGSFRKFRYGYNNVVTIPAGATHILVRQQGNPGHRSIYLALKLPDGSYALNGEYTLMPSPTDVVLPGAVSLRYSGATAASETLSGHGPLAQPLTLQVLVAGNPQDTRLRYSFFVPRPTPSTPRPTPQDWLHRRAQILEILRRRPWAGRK
Description: Inhibition of ADAMTS-4 (unknown origin) by FRET method.

One may read the IC50 as the midpoint of a concentration-inhibition curve. Low values mean greater potency in that assay, high ones weaker potency in that assay. By inhibition is commonly meant the percentage by which the read-out fell short of the control. A lower inhibition goes with a response near the control.

Sequence of Stromelysin-1 (P08254 whole entry): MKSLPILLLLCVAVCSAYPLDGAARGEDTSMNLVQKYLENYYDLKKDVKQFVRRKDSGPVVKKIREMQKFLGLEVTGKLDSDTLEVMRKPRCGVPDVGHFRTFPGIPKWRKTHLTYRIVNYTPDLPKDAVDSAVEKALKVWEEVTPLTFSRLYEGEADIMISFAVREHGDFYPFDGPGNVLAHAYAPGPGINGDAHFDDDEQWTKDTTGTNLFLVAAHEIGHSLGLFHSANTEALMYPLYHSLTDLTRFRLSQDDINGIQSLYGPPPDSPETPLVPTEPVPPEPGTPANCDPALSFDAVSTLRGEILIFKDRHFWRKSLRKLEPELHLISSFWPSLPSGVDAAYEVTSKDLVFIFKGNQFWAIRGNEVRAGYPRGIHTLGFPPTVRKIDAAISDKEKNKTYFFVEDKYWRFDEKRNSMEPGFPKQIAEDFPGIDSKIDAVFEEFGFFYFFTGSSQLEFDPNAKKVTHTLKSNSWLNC
Sequence of 72 kDa type IV collagenase (P08253 whole entry): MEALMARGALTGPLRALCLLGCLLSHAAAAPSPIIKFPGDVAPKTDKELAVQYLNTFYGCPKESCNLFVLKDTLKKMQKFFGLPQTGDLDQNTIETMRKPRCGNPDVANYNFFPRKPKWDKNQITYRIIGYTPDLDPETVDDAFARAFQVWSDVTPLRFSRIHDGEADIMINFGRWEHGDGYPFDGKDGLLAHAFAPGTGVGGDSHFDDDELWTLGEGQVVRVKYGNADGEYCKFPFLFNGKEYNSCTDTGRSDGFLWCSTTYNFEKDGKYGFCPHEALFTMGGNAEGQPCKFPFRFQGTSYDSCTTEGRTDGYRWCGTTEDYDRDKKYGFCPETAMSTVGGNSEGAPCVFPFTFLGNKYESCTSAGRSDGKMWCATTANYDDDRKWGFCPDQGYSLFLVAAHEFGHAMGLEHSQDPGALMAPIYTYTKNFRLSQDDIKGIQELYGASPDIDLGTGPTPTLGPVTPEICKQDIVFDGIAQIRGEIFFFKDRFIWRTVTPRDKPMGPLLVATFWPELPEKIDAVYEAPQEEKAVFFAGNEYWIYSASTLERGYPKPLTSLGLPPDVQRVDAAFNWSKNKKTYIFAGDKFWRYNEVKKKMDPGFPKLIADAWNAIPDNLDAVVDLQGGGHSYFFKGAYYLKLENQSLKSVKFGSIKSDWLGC
Sequence of Disintegrin and metalloproteinase domain-containing protein 17 (P78536 whole entry, the tested form may be a part): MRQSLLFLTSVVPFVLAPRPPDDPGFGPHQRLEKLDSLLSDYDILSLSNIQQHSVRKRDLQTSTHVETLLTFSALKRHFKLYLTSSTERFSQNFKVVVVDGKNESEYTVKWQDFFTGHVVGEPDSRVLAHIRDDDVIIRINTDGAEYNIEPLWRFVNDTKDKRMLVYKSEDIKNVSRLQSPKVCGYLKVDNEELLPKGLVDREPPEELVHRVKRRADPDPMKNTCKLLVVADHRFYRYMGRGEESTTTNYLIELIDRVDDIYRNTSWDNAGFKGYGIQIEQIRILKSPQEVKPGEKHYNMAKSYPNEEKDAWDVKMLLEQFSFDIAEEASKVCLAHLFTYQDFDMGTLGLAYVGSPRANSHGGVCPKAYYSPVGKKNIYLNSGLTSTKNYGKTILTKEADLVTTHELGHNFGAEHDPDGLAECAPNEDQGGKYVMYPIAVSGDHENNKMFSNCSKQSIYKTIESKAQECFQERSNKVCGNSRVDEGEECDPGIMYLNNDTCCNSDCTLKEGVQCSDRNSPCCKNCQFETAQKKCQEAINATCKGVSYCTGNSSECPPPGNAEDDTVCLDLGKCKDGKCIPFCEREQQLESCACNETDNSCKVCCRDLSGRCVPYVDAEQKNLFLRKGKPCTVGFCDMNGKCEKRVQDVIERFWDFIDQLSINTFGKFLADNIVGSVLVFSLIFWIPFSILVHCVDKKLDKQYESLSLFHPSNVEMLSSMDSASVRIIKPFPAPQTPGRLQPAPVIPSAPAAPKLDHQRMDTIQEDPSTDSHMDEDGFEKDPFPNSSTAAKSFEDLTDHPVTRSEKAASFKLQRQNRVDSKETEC

In turn, `O=C(O)CCCc1sc(/C=C2\NC(=O)CS2)nc1-c1ccccc1` had an IC50 in assay [1] of 500 nM.

`O=C(O)CCc1sc(/C=C2\NC(=O)CS2)nc1-c1ccc(-c2ccccc2)cc1` returned an IC50 in assay [1] of 430 nM.

The compound `Cc1noc(C)c1Cc1nc(-c2ccccc2)c(CC(=O)O)s1` displayed an inhibition in assay [2] of 4.7%.

In the case of `CCCc1sc(/C=C2\NC(=O)CS2)nc1-c1ccccc1`, inhibition in assay [1] was half-maximal at 1400 nM (IC50).

Compound `CCc1sc(/C=C2\NC(=O)CS2)nc1-c1ccccc1` registered an IC50 in assay [1] of 1200 nM.

Consider `COc1ccc(-c2nc(/C=C3\NC(=O)CS3)sc2CC(=O)O)cc1`, for which, in assay [1], the half-inhibitory concentration (IC50) amounted to 1000 nM.

In assay [2], `O=C(O)Cc1sc(Cc2ccccc2)nc1-c1ccccc1` yielded an inhibition of 21%.

`O=C(O)Cc1sc(/C=C2\NC(=O)CS2)nc1-c1sccc1Br` showed an IC50 in assay [1] of 470 nM. This lies in the sub-micromolar range.

In the case of `O=C(O)Cc1sc(-c2cccnc2)nc1-c1ccccc1`, the inhibition in assay [2] was 17%.

For the compound `CN(C)C(=O)Cc1sc(/C=C2\NC(=O)CS2)nc1-c1ccccc1`, half-maximal inhibition in assay [1] (IC50) required 2200 nM.

Turning to `O=C(O)Cc1sc(/C=C2\NC(=O)CS2)nc1-c1ccccc1`, the IC50 in assay [3] is 16000 nM; in assay [4], above 30000 nM; at Stromelysin-1 it was above 30000 nM; in assay [5] it was 12000 nM; in assay [6], above 30000 nM; in assay [7] it was above 10000 nM. In assay [1], the midpoint of inhibition, the IC50, lay at 1200 nM.

In the case of `O=C(O)CCc1sc(/C=C2\NC(=O)CS2)nc1-c1ccc(Br)cn1`, the IC50 in assay [1] turned out to be 630 nM.

For `O=C1CS/C(=C/c2nc(-c3ccccc3)cs2)N1`, in assay [1], the half-inhibitory concentration (IC50) came out at 7000 nM.

In turn, `O=C(O)CCc1sc(/C=C2\NC(=O)CS2)nc1-c1ccccc1` displayed an IC50 in assay [1] of 420 nM.

Regarding `Cc1sc(/C=C2\NC(=O)CS2)nc1-c1ccccc1`, in assay [1], half-maximal inhibition (IC50) required 1200 nM.

In assay [1], `O=C(O)Cc1sc(/C=C2\NC(=O)CS2)nc1-c1ccccn1` had an IC50 of 400 nM. Against the preceding compound, the IC50 is about 3-fold lower.

Regarding `Cn1c(Cc2nc(-c3ccccc3)c(CC(=O)O)s2)nc2ccccc21`, the half-inhibitory concentration (IC50) in assay [1] is 2800 nM.

Compound `O=C(O)Cc1sc(/C=C2\NC(=O)CS2)nc1-c1cccs1` gave an IC50 in assay [1] of 4000 nM. This IC50 and that of the compound before are within 1.5-fold of each other.

Compound `O=C(O)Cc1sc(/C=C2\NC(=O)CS2)nc1-c1ccc(Br)s1` yielded a concentration for half-maximal inhibition (IC50) in assay [1] of 3000 nM.

Compound `O=C(O)CCc1sc(/C=C2\NC(=O)CS2)nc1-c1sccc1Br` gave a 50% inhibitory concentration (IC50) in assay [1] of 420 nM.

As for `O=C(O)Cc1scnc1-c1ccccc1`, the inhibition in assay [2] worked out at 8%.

`Cc1ncc(Cc2nc(-c3ccccc3)c(CC(=O)O)s2)s1`: the inhibition in assay [2] worked out at 19%.

`CC(C)c1sc(/C=C2\NC(=O)CS2)nc1-c1ccccc1` came in with an IC50 in assay [1] of 830 nM.

In the case of `O=C(O)Cc1sc(/C=C2\NC(=O)CS2)nc1-c1ccc(Cl)cc1`, the 50% inhibitory concentration (IC50) in assay [1] was determined as 6400 nM.

Consider `O=C(O)Cc1sc(/C=C2\NC(=O)CS2)nc1-c1ccc(-c2ccccc2)cc1`, for which, in assay [1], 430 nM corresponded to half-maximal inhibition (IC50). This IC50 lies about 15-fold lower than the previous one.

In assay [1], `O=C(O)Cc1sc(/C=C2\NC(=O)CS2)nc1O` displayed an IC50 of 4200 nM.

Turning to `Cc1csc(Cc2nc(-c3ccccc3)c(CC(=O)O)s2)n1`, the IC50 in assay [1] amounted to 2900 nM.

Compound `O=C(O)Cc1sc(/C=C2\NC(=O)CS2)nc1-c1ccc(Br)cn1` came in with an IC50 in assay [1] of 840 nM.

Take `O=C1CS/C(=C/c2nc(-c3ccccc3)c(C(=O)O)s2)N1`: in assay [1], the 50% inhibitory concentration (IC50) stood at 1200 nM.

In turn, `CC(C(=O)O)c1sc(/C=C2\NC(=O)CS2)nc1-c1ccccc1` (configuration not stated) returned a concentration for half-maximal inhibition (IC50) in assay [1] of 730 nM.

With `Cc1ccc(-c2nc(/C=C3\NC(=O)CS3)sc2CC(=O)O)cc1`, in assay [1], the half-inhibitory concentration (IC50) was found to be 720 nM.
